Results reported in paper PMC12669672, “Structural insights into selective and dual antagonism of EP2 and EP4 prostaglandin receptors” (The EMBO Journal, 2025).
Where “and” joins values, the source holds several entries; their conditions need not be identical. Identical values can stand only once. Entries after “also recorded” stand apart in the source; their conditions may differ. Like-named read-outs stand apart in the source and are kept apart here.

What was measured:
Test in all cases: GloSensor cAMP assay, antagonism of PGE2-induced cAMP
Assay type in all cases: cell-based
EP2 S305A = target: T1, EP2 S305A (Homo sapiens, UniProt P43116, S305A); settings: for cAMP activity (∆pIC50 from EP2 WT): TG6-129, S305A
T1 construct: The full-length EP2 or EP4 was cloned into the pcDNA3.1 vector; FLAG (N); expressed in transfected cells; host or cells: AD293 cells
Description: (§1) The full-length EP2 or EP4 was cloned into the pcDNA3.1 vector (Invitrogen), incorporating an N-terminal FLAG tag. AD293 cells were seeded in six-well plates containing DMEM supplemented with 10% dialyzed FBS 1 day prior to transfection. Following overnight growth, cells were transfected with a 1:1 ratio of receptor construct and GloSensor22F cAMP biosensor (Promega) plasmids.
(§2) Twenty-four hours post-transfection, the cells were transferred to CO2-independent media containing 2% GloSensor cAMP Reagent (Promega) and distributed into 384-well assay plates at a density of 4000 cells per well in 10 μL. […] The plates were then incubated at 37 °C for an additional hour before luminescence measurements were taken using an EnVision plate reader.
(§3) Data analysis was performed using GraphPad Prism software v8.0.1. A nonlinear regression analysis, employing a sigmoidal dose–response model, was conducted to determine the Emax values and half-maximum inhibitory concentrations (IC50) for each compound tested.

EP4 V320A = target: T2, EP4 V320A (Homo sapiens, UniProt P35408, V320A); settings: for cAMP activity (∆pIC50 from EP4 WT): TG6-129, V320A
T2 construct: The full-length EP2 or EP4 was cloned into the pcDNA3.1 vector (Invitrogen), incorporating an N-terminal FLAG tag; expressed in transfected cells; host or cells: AD293
Description: as §1, §2, §3

EP4 WT = target: T3, EP4 WT (Homo sapiens, UniProt P35408); settings: for remaining activity at 100 µM / remaining activity at […] / remaining activity at 0.1585 µM / remaining activity at 0.03236 µM / remaining activity at 0.006457 µM / remaining activity at 0.001288 µM: 1 h
T3 construct: The full-length EP2 or EP4 was cloned into the pcDNA3.1 vector; FLAG (N); expressed in transfected cells; host or cells: AD293 cells
Description: as §1, §2, §3

EP2 WT = EP2 WT (Homo sapiens, UniProt P43116); parameters: The full-length EP2 or EP4 was cloned into the pcDNA3.1 vector; FLAG (N); expressed in transfected cells; host or cells: AD293 cells
Description: as §1, §2, §3

[1] = 1 h, TG6-129 log([M]) -9, read-out: % cAMP activity (normalized to WT)
[2] = 1 h, TG6-129 log([M]) -11, read-out: % cAMP activity (normalized to WT)
[3] = 1 h, TG6-129 log([M]) -12, read-out: % cAMP activity (normalized to WT)
[4] = TG6-129, WT, single experiments 1st-3rd

Sequence of EP2 WT (P43116 whole entry): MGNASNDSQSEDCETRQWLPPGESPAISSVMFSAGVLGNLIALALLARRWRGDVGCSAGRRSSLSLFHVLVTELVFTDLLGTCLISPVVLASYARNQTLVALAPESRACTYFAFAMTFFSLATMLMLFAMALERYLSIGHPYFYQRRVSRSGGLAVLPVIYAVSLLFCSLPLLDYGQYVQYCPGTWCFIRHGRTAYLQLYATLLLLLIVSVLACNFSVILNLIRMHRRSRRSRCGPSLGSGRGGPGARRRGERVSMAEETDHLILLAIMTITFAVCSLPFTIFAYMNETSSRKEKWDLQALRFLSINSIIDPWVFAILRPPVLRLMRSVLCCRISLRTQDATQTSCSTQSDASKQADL
T2 sequence (P35408 whole entry V320A): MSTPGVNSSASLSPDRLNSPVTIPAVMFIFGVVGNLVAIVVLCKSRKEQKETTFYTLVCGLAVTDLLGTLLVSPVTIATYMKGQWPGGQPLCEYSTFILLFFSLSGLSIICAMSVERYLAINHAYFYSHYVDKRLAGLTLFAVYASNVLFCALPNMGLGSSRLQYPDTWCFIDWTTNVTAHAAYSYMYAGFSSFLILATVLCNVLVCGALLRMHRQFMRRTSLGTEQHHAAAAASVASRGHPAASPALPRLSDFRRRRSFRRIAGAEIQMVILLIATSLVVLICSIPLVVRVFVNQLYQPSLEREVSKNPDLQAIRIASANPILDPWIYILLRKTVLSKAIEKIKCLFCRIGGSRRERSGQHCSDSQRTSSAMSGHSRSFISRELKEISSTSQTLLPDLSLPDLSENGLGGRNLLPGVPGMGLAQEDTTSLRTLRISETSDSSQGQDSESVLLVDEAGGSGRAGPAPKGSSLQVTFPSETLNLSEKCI
T1 sequence (P43116 whole entry S305A): as the sequence (P43116 whole entry) above, with S305A counted along it
T3 sequence (P35408 whole entry): as the sequence (P35408 whole entry V320A) above, with A320V counted along it

Work on CCc1nnc(NS(=O)(=O)c2ccc(NC(=S)NC(=O)/C=C/c3ccc(F)cc3)cc2)s1 [TG6-129] yielded a remaining activity at 0.001 µM (EP2 S305A; [1]) of 44.8%, a remaining activity at 10 pM (EP2 S305A; [2]) of 67.8% and a remaining activity at 1 pM (EP2 S305A; [3]) of 54.8%. The “cAMP activity (∆pIC50 from EP2 WT)” value (EP2 S305A; Mean) was 0.475, the “cAMP activity (∆pIC50 from EP2 WT)” value (EP2 S305A; single experiments 1st-3rd) was 0.478 and 0.360 and 0.586 and the IC50 (EP4 V320A) was 13.5 µM. The remaining activity at […] (EP4 V320A; 1 h, TG6-129 log([M]) -4.70, read-out: % cAMP activity (normalized to WT)) was 26.1%, the remaining activity at […] (EP4 V320A; 1 h, TG6-129 log([M]) -5.40, read-out: % cAMP activity (normalized to WT)) was 66.6% and the remaining activity at […] (EP4 V320A; 1 h, TG6-129 log([M]) -6.10, read-out: % cAMP activity (normalized to WT)) was 66.9%. For the same molecule, the remaining activity at 0.1585 µM (EP4 V320A; 1 h, TG6-129 log([M]) -6.80, read-out: % cAMP activity (normalized to WT)) was 68%, the remaining activity at 0.03236 µM (EP4 V320A; 1 h, TG6-129 log([M]) -7.49, read-out: % cAMP activity (normalized to WT)) was 66.5% and the remaining activity at 0.006457 µM (EP4 V320A; 1 h, TG6-129 log([M]) -8.19, read-out: % cAMP activity (normalized to WT)) was 70.4%. For the same molecule, the remaining activity at 0.001288 µM (EP4 V320A; 1 h, TG6-129 log([M]) -8.89, read-out: % cAMP activity (normalized to WT)) was 68.8%, the ΔpIC50 (EP4 V320A; PGE2 0.5 nM, pIC50 mutant - pIC50 WT, mean) was -0.11 ± 0.05 and the “cAMP activity (∆pIC50 from EP4 WT)” value (EP4 V320A; Mean) was -0.111. The “cAMP activity (∆pIC50 from EP4 WT)” value (EP4 V320A; single experiments 1st-3rd) was -0.105 and -0.202 and -0.027, the remaining activity at 100 µM (EP4 WT; TG6-129 log([M]) -4.00, read-out: % cAMP activity (normalized to WT)) was 15.1% and the remaining activity at […] (EP4 WT; TG6-129 log([M]) -4.70, read-out: % cAMP activity (normalized to WT)) was 25.9%. It also gave a remaining activity at […] (EP4 WT; TG6-129 log([M]) -5.40, read-out: % cAMP activity (normalized to WT)) of 86.4%, a remaining activity at […] (EP4 WT; TG6-129 log([M]) -6.10, read-out: % cAMP activity (normalized to WT)) of 94.7% and a remaining activity at 0.1585 µM (EP4 WT; TG6-129 log([M]) -6.80, read-out: % cAMP activity (normalized to WT)) of 90.5%. It also gave a remaining activity at 0.03236 µM (EP4 WT; TG6-129 log([M]) -7.49, read-out: % cAMP activity (normalized to WT)) of 87.9%, a remaining activity at 0.006457 µM (EP4 WT; TG6-129 log([M]) -8.19, read-out: % cAMP activity (normalized to WT)) of 104% and a remaining activity at 0.001288 µM (EP4 WT; TG6-129 log([M]) -8.89, read-out: % cAMP activity (normalized to WT)) of 109%. It also gave a remaining activity at 100 µM (EP4 WT; read-out: % cAMP activity EP4 (normalized to Grapiprant), ligand log([M]) -4.00, single experiments 1st-3rd, Fig. S1A) of 15.1%, a remaining activity at […] (EP4 WT; read-out: % cAMP activity EP4 (normalized to Grapiprant), ligand log([M]) -4.70, single experiments 1st-3rd, Fig. S1A) of 25.9% and a remaining activity at […] (EP4 WT; read-out: % cAMP activity EP4 (normalized to Grapiprant), ligand log([M]) -5.40, single experiments 1st-3rd, Fig. S1A) of 86.4%. It also gave a remaining activity at […] (EP4 WT; read-out: % cAMP activity EP4 (normalized to Grapiprant), ligand log([M]) -6.10, single experiments 1st-3rd, Fig. S1A) of 94.7%, a remaining activity at 0.1585 µM (EP4 WT; read-out: % cAMP activity EP4 (normalized to Grapiprant), ligand log([M]) -6.80, single experiments 1st-3rd, Fig. S1A) of 90.5% and a remaining activity at 0.03236 µM (EP4 WT; read-out: % cAMP activity EP4 (normalized to Grapiprant), ligand log([M]) -7.49, single experiments 1st-3rd, Fig. S1A) of 87.9%. For the same molecule, the remaining activity at 0.006457 µM (EP4 WT; read-out: % cAMP activity EP4 (normalized to Grapiprant), ligand log([M]) -8.19, single experiments 1st-3rd, Fig. S1A) was 104%, the remaining activity at 0.001288 µM (EP4 WT; read-out: % cAMP activity EP4 (normalized to Grapiprant), ligand log([M]) -8.89, single experiments 1st-3rd, Fig. S1A) was 109% and the “cAMP activity (∆pIC50 from EP4 WT)” value (EP4 WT; [4]) was 0.138 and 0.074 and -0.140. The IC50 (EP2 WT) was 0.0813 µM, the remaining activity at 0.1 µM (EP2 WT; 1 h, TG6-129 log([M]) -7, read-out: % cAMP activity (normalized to WT)) was 40.1% and the remaining activity at 0.01 µM (EP2 WT; 1 h, TG6-129 log([M]) -8, read-out: % cAMP activity (normalized to WT)) was 94.7%. For the same molecule, the remaining activity at 0.001 µM (EP2 WT; [1]) was 104%, the remaining activity at 0.0001 µM (EP2 WT; 1 h, TG6-129 log([M]) -10, read-out: % cAMP activity (normalized to WT)) was 94.6% and the remaining activity at 10 pM (EP2 WT; [2]) was 102%. For the same molecule, the remaining activity at 1 pM (EP2 WT; [3]) was 94.1%, the remaining activity at 1 µM (EP2 WT; 1 h, ligand log([M]) -6, single experiments 1st-3rd, Fig. S7B, read-out: % cAMP activity (normalized to WT)) was 3.11% and the remaining activity at 0.1 µM (EP2 WT; 1 h, ligand log([M]) -7, single experiments 1st-3rd, Fig. S7B, read-out: % cAMP activity (normalized to WT)) was 42.8%. The remaining activity at 0.01 µM (EP2 WT; 1 h, ligand log([M]) -8, single experiments 1st-3rd, Fig. S7B, read-out: % cAMP activity (normalized to WT)) was 80.3%, the remaining activity at 0.001 µM (EP2 WT; 1 h, ligand log([M]) -9, single experiments 1st-3rd, Fig. S7B, read-out: % cAMP activity (normalized to WT)) was 95.4% and the remaining activity at 0.0001 µM (EP2 WT; 1 h, ligand log([M]) -10, single experiments 1st-3rd, Fig. S7B, read-out: % cAMP activity (normalized to WT)) was 93.9%. It also gave a remaining activity at 10 pM (EP2 WT; 1 h, ligand log([M]) -11, single experiments 1st-3rd, Fig. S7B, read-out: % cAMP activity (normalized to WT)) of 103%, a remaining activity at 1 pM (EP2 WT; 1 h, ligand log([M]) -12, single experiments 1st-3rd, Fig. S7B, read-out: % cAMP activity (normalized to WT)) of 110% and a remaining activity at 0.1 µM (EP2 WT; 1 h, read-out: % cAMP activity on EP2 (normalized to PF-04418948), ligand log([M]) -7, single experiments 1st-3rd, Fig. S1A) of 46%. For the same molecule, the remaining activity at 0.01 µM (EP2 WT; 1 h, read-out: % cAMP activity on EP2 (normalized to PF-04418948), ligand log([M]) -8, single experiments 1st-3rd, Fig. S1A) was 84.5%, the remaining activity at 0.001 µM (EP2 WT; 1 h, read-out: % cAMP activity on EP2 (normalized to PF-04418948), ligand log([M]) -9, single experiments 1st-3rd, Fig. S1A) was 100% and the remaining activity at 0.0001 µM (EP2 WT; 1 h, read-out: % cAMP activity on EP2 (normalized to PF-04418948), ligand log([M]) -10, single experiments 1st-3rd, Fig. S1A) was 98.6%. The remaining activity at 10 pM (EP2 WT; 1 h, read-out: % cAMP activity on EP2 (normalized to PF-04418948), ligand log([M]) -11, single experiments 1st-3rd, Fig. S1A) was 108%, the remaining activity at 1 pM (EP2 WT; 1 h, read-out: % cAMP activity on EP2 (normalized to PF-04418948), ligand log([M]) -12, single experiments 1st-3rd, Fig. S1A) was 115% and the “cAMP activity (∆pIC50 from EP2 WT)” value (EP2 WT; [4]) was 0.065 and 0.064 and -0.014. The “antagonism profile EP2 versus EP4 (in words)” value (EP2 WT; cAMP accumulation assay upon PGE2 stimulation, Appendix Fig. S1A) was “dual antagonist that preferentially antagonizes EP2; also recorded: preferential potency toward EP2” and the “cAMP activity (∆pIC50 from EP2 WT)” value (EP2 WT; single experiments 1st-3rd, Appendix Fig. S7A) was 0.111 and -0.076 and -0.052.
